Legend:
[1] = Solid state stability (purity by UPLC); assay type: physicochemical
Procedure: Compounds 100, 101 and 102 were kept in glass vials at three different locations at temperatures of […], 2-8° C. and −20° C. in order to assess solid state stability at room temperature, refrigerated conditions and in a deep freezer. The compounds from these vials were assessed for purity by UPLC at three different timepoints 0 hrs, 24 hrs and 48 hrs. Table 2 depicts the results obtained for solid state stability at 25° C., 2-8° C. and −20° C. respectively. Purity measurements were made at 0 hrs, 24 hours and 48 hours.

[2] = Stability in solutions (pH range, simulated gastric fluid, simulated intestinal fluid); assay type: physicochemical
Procedure: 1 mg/ml solutions of compound 100 were prepared in each buffer, diluted to 0.1 mg/ml in methanol at each time point and analyzed as follows: Gemini C-18, 250×4.6 mm, 5 im, Mobile Phase: Methanol Isocratic Flow Rate: 0.4 mL/min.

[3] = Human hepatocyte clearance; assay type: in vitro ADME; conditions: human hepatocytes, 1 μM
How it was run: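 Cryopreserved human hepatocytes at a 2 million cell working stock mixed 1:1 with 2 μM compound working stock at 37 °C, in duplicate. Samples quenched in acetonitrile with internal standard at 0, 15, 30, 60 and 90 min, then analysed by LC-MS/MS.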

Jurkat Cells = assay: Cellular NAD+ levels in Jurkat cells (LCMS/MS); assay type: cell-based; conditions: 30 μM, four hours of incubation
Procedure: Compounds 100, 101 and 102 were weighted out to prepare 60 μM stock solutions in RPMI media. 200 ng/mL solution of Rac-tenofovir d6 (Vivan Life-Sciences) was prepared in methanol (MeOH) and placed at −20° C. until use.
Jurkat Cells, sourced from NCCS Pune, were cultured in RPMI media containing FBS & Antibiotics. Cells from different flasks (90% confluent) were pooled into a 15 mL conical tube and centrifuged for 5 mins at 1200 rpm for 5 mins. The supernatant solution was discarded, and the pellet was washed with 5 mL sterile PBS (without Ca^2+ & Mg^2+). The tube was then centrifuged at 1200 rpm for 5 mins and the supernatant was discarded. The cell pellet was resuspended in 7 mL of RPMI media, and a cell count was done using 10 uL of the cell solution. 1.5 million cells from the cell solution were seeded into 1.5 mL microcentrifuge tubes. […] The tubes were placed in racks and gently swirled to mix the compounds into the media containing the cells. These tubes were then incubated for 4 hours in a 37° C. incubator at 5% CO2. After 4 hours of incubation the cells were spun down at 1000 rpm for 10 mins, the supernatant was discarded carefully, and cells were snap frozen in liquid nitrogen. When the samples were run, the extraction of the cells was on ice, cells were lysed using 20 uL deionized water and then ice cold 80% methanol containing the internal standard—Rac-Tenofovir D was added. The tubes were then vortexed at 2500 rpm for 8 minutes and then centrifuged at […] for 10 minutes. 150 uL of the supernatant was carefully transferred to HPLC vials and was analyzed for NAD^+ on the Abscised 4000 Q Trap LCMS/MS system. A C18, 3.5 μm, 2.1×100 mm, Bridge Column was used in the LC. The mobile phase consisted of 10 mM ammonium acetate with 0.1% acetic acid and 0.1% hexylamine as Solvent-A and 10 mM Ammonium acetate with 0.1% acetic acid and 0.1% hexylamine in 95/5 MeOH/H2O as Solvent-B. The gradient used was 0 mins-0.0% B, 0.5 mins-100% B, 1.5 mins-100% B, 3.0 mins-100% B, 3.1 mins-0.0% B, 7.0-STOP. The column flow rate was 0.5 mL/min. The sample injection volume was […].

## COC(=O)[C@@H](C)NP(=O)(OC[C@H]1OC(OC(=O)c2cccnc2)[C@H](O)[C@@H]1O)Oc1ccccc1 (stereo partly drawn) [Compound 101, (3R, 4S, 5R)-3,4-dihydroxy-5-(((((1-methoxy-1-oxopropan-2-yl)amino)(phenoxy)phosphoryl)oxy)methyl)tetrahydrofuran-2-yl nicotinate]
[1]; 2-8° C., 0 hr
  Solid State Stability (% Purity): 93.20%
[1]; 2-8° C., 24 hr
  Solid State Stability (% Purity): 90.57%
[1]; 2-8° C., 48 hr
  Solid State Stability (% Purity): 90.59%
[1]; 25° C., 0 hr
  Solid State Stability (% Purity): 93.20%
[1]; 25° C., 24 hr
  Solid State Stability (% Purity): 89.68%
[1]; 25° C., 48 hr
  Solid State Stability (% Purity): 90.66%
[1]; −20° C., 0 hr
  Solid State Stability (% Purity): 93.20%
[1]; −20° C., 24 hr
  Solid State Stability (% Purity): 90.72%
[1]; −20° C., 48 hr
  Solid State Stability (% Purity): 90.63%
[2]; SGF (simulated gastric fluid), 0 h
  % remaining: 90.17%
[2]; SGF (simulated gastric fluid), 1 week
  % remaining: 3.41%
[2]; SGF (simulated gastric fluid), 1 h
  % remaining: 88.8%
[2]; SGF (simulated gastric fluid), 2 h
  % remaining: 87.74%
[2]; SGF (simulated gastric fluid), 4 h
  % remaining: 83.09%
[2]; SGF (simulated gastric fluid), 8 h
  % remaining: 77.12%
[2]; SGF (simulated gastric fluid), 24 h
  % remaining: 41.98%
[2]; SGF (simulated gastric fluid), 48 h
  % remaining: 29.17%
[2]; SIF (simulated intestinal fluid), 0 h
  % remaining: 91.59%
[2]; SIF (simulated intestinal fluid), 1 week
  % remaining: 76.58%
[2]; SIF (simulated intestinal fluid), 1 h
  % remaining: 91.12%
[2]; SIF (simulated intestinal fluid), 2 h
  % remaining: 91.16%
[2]; SIF (simulated intestinal fluid), 4 h
  % remaining: 90.07%
[2]; SIF (simulated intestinal fluid), 8 h
  % remaining: 90.28%
[2]; SIF (simulated intestinal fluid), 24 h
  % remaining: 85.29%
[2]; SIF (simulated intestinal fluid), 48 h
  % remaining: 85.54%
[2]; pH 1, 0 h
  % remaining: 88.03%
[2]; pH 1, 1 week
  % remaining: 1.01%
[2]; pH 1, 1 h
  % remaining: 85.91%
[2]; pH 1, 2 h
  % remaining: 85.4%
[2]; pH 1, 4 h
  % remaining: 81.82%
[2]; pH 1, 8 h
  % remaining: 74.41%
[2]; pH 1, 24 h
  % remaining: 50.26%
[2]; pH 1, 48 h
  % remaining: 16.35%
[2]; pH 2, 0 h
  % remaining: 88.86%
[2]; pH 2, 1 week
  % remaining: 13.5%
[2]; pH 2, 1 h
  % remaining: 88.82%
[2]; pH 2, 2 h
  % remaining: 87.46%
[2]; pH 2, 4 h
  % remaining: 85.16%
[2]; pH 2, 8 h
  % remaining: 81.19%
[2]; pH 2, 24 h
  % remaining: 63.31%
[2]; pH 2, 48 h
  % remaining: 35.33%
[2]; pH 4, 0 h
  % remaining: 82.98%
[2]; pH 4, 1 week
  % remaining: 37.7%
[2]; pH 4, 1 h
  % remaining: 83.96%
[2]; pH 4, 2 h
  % remaining: 82.79%
[2]; pH 4, 4 h
  % remaining: 81.96%
[2]; pH 4, 8 h
  % remaining: 79.6%
[2]; pH 4, 24 h
  % remaining: 70.75%
[2]; pH 4, 48 h
  % remaining: 69.7%
[2]; pH 6, 0 h
  % remaining: 88.78%
[2]; pH 6, 1 week
  % remaining: 73.66%
[2]; pH 6, 1 h
  % remaining: 88.01%
[2]; pH 6, 2 h
  % remaining: 87.98%
[2]; pH 6, 4 h
  % remaining: 87.55%
[2]; pH 6, 8 h
  % remaining: 86.2%
[2]; pH 6, 24 h
  % remaining: 86.09%
[2]; pH 6, 48 h
  % remaining: 73.74%
[2]; pH 7.4, 0 h
  % remaining: 88.58%
[2]; pH 7.4, 1 week
  % remaining: 67.37%
[2]; pH 7.4, 1 h
  % remaining: 88.62%
[2]; pH 7.4, 2 h
  % remaining: 88.48%
[2]; pH 7.4, 4 h
  % remaining: 87.24%
[2]; pH 7.4, 8 h
  % remaining: 86.71%
[2]; pH 7.4, 24 h
  % remaining: 86.62%
[2]; pH 7.4, 48 h
  % remaining: 79.75%
[2]; pH 9, 0 h
  % remaining: 90.15%
[2]; pH 9, 1 week
  % remaining: 0%
[2]; pH 9, 1 h
  % remaining: 80.81%
[2]; pH 9, 2 h
  % remaining: 70.65%
[2]; pH 9, 4 h
  % remaining: 48.75%
[2]; pH 9, 8 h
  % remaining: 26.14%
[2]; pH 9, 24 h
  % remaining: 4.45%
[2]; pH 9, 48 h
  % remaining: 0%
[3]; 0-90 min, read-out: T½
  half-life at 1 μM: 12.8 min
[3]; read-out: Intrinsic Clearance (CL Int)
  hepatocyte CLint at 1 μM: 53.9 µL/min/1e6 cells
Jurkat Cells
  NAD+ level increase compared to untreated cells: showed statistical significance in terms of NAD^+ level increases
  NAD+ level increase, comparison among the compounds: highest increase

From US12168673B2 (Mitopower, Inc., priority 2022, dated 2024)
